Measured values reported in ChEMBL document CHEMBL5029171, “Dynamics of Post-Translational Modification Inspires Drug Design in the Kinase Family” (J Med Chem, 2021).

Experiments:
[1] = biological target: Proto-oncogene tyrosine-protein kinase Src (Homo sapiens) (UniProt P12931); assay: Inhibition of human recombinant flag-tagged c-Src protein (86 to 536 residues) catalytic activity expressed in Escherichia coli BL21 (DE3) cells at 50 uM using biotinylated TK-substrate peptide as substrate preincubated for 1 hr followed by substrate addition and measured after 1 hr by HTRF assay relative to control; conditions: time 2.0 hrs
Chain of Proto-oncogene tyrosine-protein kinase Src (Homo sapiens) (P12931 2-536 limits assumed): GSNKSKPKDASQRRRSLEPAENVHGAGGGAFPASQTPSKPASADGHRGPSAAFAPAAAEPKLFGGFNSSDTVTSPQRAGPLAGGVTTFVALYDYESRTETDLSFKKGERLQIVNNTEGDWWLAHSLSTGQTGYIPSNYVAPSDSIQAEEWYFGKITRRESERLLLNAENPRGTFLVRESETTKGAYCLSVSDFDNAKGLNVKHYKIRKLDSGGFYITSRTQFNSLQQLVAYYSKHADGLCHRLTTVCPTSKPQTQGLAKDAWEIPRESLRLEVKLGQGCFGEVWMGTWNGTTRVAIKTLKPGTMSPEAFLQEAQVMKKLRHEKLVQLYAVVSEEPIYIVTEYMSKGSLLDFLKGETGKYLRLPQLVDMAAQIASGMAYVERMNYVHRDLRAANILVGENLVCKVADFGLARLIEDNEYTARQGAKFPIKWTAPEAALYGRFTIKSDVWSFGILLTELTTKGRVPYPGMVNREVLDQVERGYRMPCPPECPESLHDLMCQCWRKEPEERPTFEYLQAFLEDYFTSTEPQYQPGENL

[2] = biological target: Proto-oncogene tyrosine-protein kinase Src (Homo sapiens) (UniProt P12931); assay: Binding affinity to human recombinant flag-tag c-Src protein (86 to 536 residues) expressed in Escherichia coli BL21 (DE3) cells assessed as change in melting temperature at 1:5 ratio incubated for 25 mins by protein thermal shift assay
[3] = biological target: Proto-oncogene tyrosine-protein kinase Src (Homo sapiens) (UniProt P12931); assay: Binding affinity to human recombinant flag-tag c-Src protein (86 to 536 residues) expressed in Escherichia coli BL21 (DE3) cells assessed as change in melting temperature at 1:10 ratio incubated for 25 mins by protein thermal shift assay
[4] = biological target: Proto-oncogene tyrosine-protein kinase Src (Homo sapiens) (UniProt P12931); assay: Binding affinity to human recombinant flag-tag c-Src protein (86 to 536 residues) expressed in Escherichia coli BL21 (DE3) cells assessed as change in melting temperature at 1:20 ratio incubated for 25 mins by protein thermal shift assay

| inhibition [1] | ΔTm [2] | ΔTm [3] | ΔTm [4] | Structure (SMILES) |
| --- | --- | --- | --- | --- |
| > 60% | – | – | – | COc1ccc(C(C(=O)NC2CCCC2)N(CCC2=CCCCC2)C(=O)CCl)cc1 (stereo unspecified) |
| > 60% | 1.5 °C | 2.56 °C | 3.3 °C | O=C(NC1CCCC1)C(c1ccc(F)cc1)N(C(=O)CCl)C1CC1 (stereo unspecified) |
| > 60% | – | – | – | O=C(NC1CCCC1)C(c1ccc(Cl)cc1)N(Cc1cccs1)C(=O)CCl (stereo unspecified) |
